Measured values reported in patent publication US10301664B2, “Repurposing non-antimicrobial drugs and clinical molecules to treat bacterial infections” (Purdue Research Foundation, priority 2015, dated 2019).
Values after ≈ are worked out from the molar mass of the structure shown. Like-named read-outs stand apart in the source and are kept apart here.

Tests used:
[1] = test system: MRSA USA200; format: in vivo, BALB/c mice; details: EB 30 mg/kg or FdUrd 25 mg/kg once daily for three days, monitored six days
Experimental: Animal procedures were approved by the Purdue University Animal Care and Use Committee (PACUC) (protocol no. 1311000988). Eight-week-old female BALB/c mice (Harlan Laboratories, Indianapolis, Ind.) were used for this study. Mice were rendered neutropenic by treatment with cyclophosphamide intraperitoneally (IP) 150 and 100 mg/kg at four days and one day before infection, respectively. Neutropenic mice were inoculated IP with 8×10^8 MRSA USA200. At one hour after infection, the mice were divided into five groups (n=10 per group), and two groups were treated orally with either EB 30 mg/kg or FdUrd 25 mg/kg. Two groups were treated IP with either EB 30 mg/kg or FdUrd 25 mg/kg. One group was used as a control with no treatment. Treatment was continued once daily for two more days (animals received three doses total). Mortality was monitored four times daily for six days, and the cumulative percent survival was determined. The data were subjected to statistical analysis using Kaplan-Meier survival curves. A log rank test was performed for 95% confidence intervals by GraphPad Prism 6.0 (GraphPad Software, La Jolla, Calif.).

[2] = test system: Methicillin-sensitive S. aureus (MSSA); assay: MIC and MBC against methicillin-sensitive S. aureus isolates (CLSI); format: cell-based; details: Staphylococcus aureus; for MBC: read-out: MBC; for MIC: read-out: MIC
[3] = test system: vancomycin resistant E. faecium ATCC 700221 (VRE); assay: Library hits: MIC/MBC against VRE; format: cell-based; details: VRE
[4] = test system: E. fecalis ATCC 51229 (VRE); assay: MIC and MBC against E. fecalis VRE (CLSI); format: cell-based; details: Enterococcus
Experimental: The NIH Clinical Collections 1 and 2 (http://www.nihclinicalcollection.com) containing 727 FDA approved drugs and small molecules previously used in human clinical trials with known safety profiles were screened against ESKAPE pathogens. The library was initially screened at a single concentration of 16 μM to identify “hit” non-antibacterial drugs. Once the antimicrobial activity of the drugs was confirmed, we determined their MICs and minimum bactericidal concentrations (MBCs) according to the Clinical and Laboratory Standards Institute (CLSI).

[5] = test system: E. faecium ATCC 700221 (VRE); assay: MIC and MBC against E. faecium VRE (CLSI), Table 1; format: cell-based; details: Enterococcus faecium
[6] = test system: Methicillin resistant S. aureus (MRSA); assay: MIC and MBC against methicillin resistant S. aureus clinical isolates (CLSI); format: cell-based; details: Staphylococcus aureus; for MBC: read-out: MBC; for MIC: read-out: MIC
[7] = test system: Vancomycin-resistant S. aureus (VRSA); assay: MIC and MBC against vancomycin-resistant S. aureus clinical isolates (CLSI); format: cell-based; details: Staphylococcus aureus, VRSA; for MBC: read-out: MBC; for MIC: read-out: MIC
[8] = in vivo
[9] = test system: MRSA USA300; assay: Library hits: MIC/MBC against MRSA; format: cell-based, Staphylococcus aureus; details: Staphylococcus aureus
[10] = test system: Vancomycin-intermediate S. aureus (VISA); assay: MIC and MBC against vancomycin-intermediate S. aureus isolates (CLSI); format: cell-based; details: Staphylococcus aureus; for MBC: read-out: MBC; for MIC: read-out: MIC
[11] = test system: S. epidermidis NRS 101; assay: MIC and MBC against S. epidermidis (CLSI); format: cell-based; details: Staphylococcus epidermidis, NRS101
[12] = test system: clinical isolates of S. aureus; assay: MIC90 over clinical isolates of S. aureus; format: cell-based; details: Staphylococcus aureus, Table 1, read-out: MIC90 (MIC at which 90% of clinical isolates of S. aureus were inhibited)
[13] = MRSA / NRS 119, NRS119 (resistant to linezolid)

Compound: O=c1[nH]c(=O)n([C@H]2C[C@H](O)[C@@H](CO)O2)cc1F [FdUrd, 5-fluoro-2′-deoxyuridine]
- mice survival compared to that of control ([1]; IP): 100%
- mice survival compared to that of control ([1]; oral): 60%
- MBC ([2]; MSSA / NRS 72): 1.95 ng/mL (≈ 7.92 nM)
- MIC ([2]; MSSA / NRS 72): 0.975 ng/mL (≈ 3.96 nM)
- MBC ([2]; MSSA / NRS 77): 0.49 ng/mL (≈ 1.99 nM)
- MIC ([2]; MSSA / NRS 77): 0.49 ng/mL (≈ 1.99 nM)
- MBC ([2]; MSSA / NRS 846): 3.9 ng/mL (≈ 15.8 nM)
- MIC ([2]; MSSA / NRS 846): 3.9 ng/mL (≈ 15.8 nM)
- MBC ([2]; MSSA / NRS 860): 1.95 ng/mL (≈ 7.92 nM)
- MIC ([2]; MSSA / NRS 860): 1.95 ng/mL (≈ 7.92 nM)
- MBC [3]: 0.5 µM (≈ 0.123 µg/mL)
- MIC ([3]; read-out: MIC): < 0.5 µM
- MBC [4]: 125 ng/mL (≈ 508 nM)
- MIC [4]: 125 ng/mL (≈ 508 nM)
- MBC [5]: 125 ng/mL (≈ 508 nM)
- MIC [5]: 62.5 ng/mL (≈ 254 nM)
- MBC ([6]; MRSA / NRS 70): 3.15 ng/mL (≈ 12.8 nM)
- MIC ([6]; MRSA / NRS 70): 3.9 ng/mL (≈ 15.8 nM)
- MBC ([6]; MRSA / NRS 71): 1.95 ng/mL (≈ 7.92 nM)
- MIC ([6]; MRSA / NRS 71): 1.95 ng/mL (≈ 7.92 nM)
- MBC ([6]; MRSA / NRS 100): 0.975 ng/mL (≈ 3.96 nM)
- MIC ([6]; MRSA / NRS 100): 0.975 ng/mL (≈ 3.96 nM)
- MBC ([6]; MRSA / NRS 108): 15.6 ng/mL (≈ 63.4 nM)
- MIC ([6]; MRSA / NRS 108): 7.8 ng/mL (≈ 31.7 nM)
- MBC [6, 13]: 15.6 ng/mL (≈ 63.4 nM)
- MIC [6, 13]: 3.9 ng/mL (≈ 15.8 nM)
- MBC ([6]; MRSA / NRS 123): 3.9 ng/mL (≈ 15.8 nM)
- MIC ([6]; MRSA / NRS 123): 0.975 ng/mL (≈ 3.96 nM)
- MBC ([6]; MRSA / NRS 194): 62.5 ng/mL (≈ 254 nM)
- MIC ([6]; MRSA / NRS 194): 3.9 ng/mL (≈ 15.8 nM)
- MBC ([6]; MRSA / NRS 382): 7.8 ng/mL (≈ 31.7 nM)
- MIC ([6]; MRSA / NRS 382): 0.975 ng/mL (≈ 3.96 nM)
- MBC ([6]; MRSA / NRS 383): 7.8 ng/mL (≈ 31.7 nM)
- MIC ([6]; MRSA / NRS 383): 7.8 ng/mL (≈ 31.7 nM)
- MBC ([6]; MRSA / NRS 384, NRS 384): 1.95 ng/mL (≈ 7.92 nM)
- MIC ([6]; MRSA / NRS 384, NRS 384): 1.95 ng/mL (≈ 7.92 nM)
- MBC ([6]; MRSA / NRS 385, NRS 385): 31.5 ng/mL (≈ 128 nM)
- MIC ([6]; MRSA / NRS 385, NRS 385): 31.5 ng/mL (≈ 128 nM)
- MBC ([6]; MRSA / NRS 386, NRS 386): 7.8 ng/mL (≈ 31.7 nM)
- MIC ([6]; MRSA / NRS 386, NRS 386): 1.95 ng/mL (≈ 7.92 nM)
- MBC ([6]; MRSA / NRS 387, NRS 387): 15.6 ng/mL (≈ 63.4 nM)
- MIC ([6]; MRSA / NRS 387, NRS 387): 3.9 ng/mL (≈ 15.8 nM)
- MBC ([6]; MRSA / NRS 483, NRS 483): 7.8 ng/mL (≈ 31.7 nM)
- MIC ([6]; MRSA / NRS 483, NRS 483): 1.95 ng/mL (≈ 7.92 nM)
- MBC ([6]; MRSA / NRS 484, NRS 484): 3.9 ng/mL (≈ 15.8 nM)
- MIC ([6]; MRSA / NRS 484, NRS 484): 0.975 ng/mL (≈ 3.96 nM)
- MBC ([7]; VRSA1): 7.8 ng/mL (≈ 31.7 nM)
- MIC ([7]; VRSA1): 7.8 ng/mL (≈ 31.7 nM)
- MBC ([7]; VRSA2): 15.6 ng/mL (≈ 63.4 nM)
- MIC ([7]; VRSA2): 3.9 ng/mL (≈ 15.8 nM)
- MBC ([7]; VRSA3a): 0.975 ng/mL (≈ 3.96 nM)
- MIC ([7]; VRSA3a): 0.975 ng/mL (≈ 3.96 nM)
- MBC ([7]; VRSA3b): 0.49 ng/mL (≈ 1.99 nM)
- MIC ([7]; VRSA3b): 0.49 ng/mL (≈ 1.99 nM)
- MBC ([7]; VRSA4): 3.9 ng/mL (≈ 15.8 nM)
- MIC ([7]; VRSA4): 1.95 ng/mL (≈ 7.92 nM)
- MBC ([7]; VRSA5): 1.95 ng/mL (≈ 7.92 nM)
- MIC ([7]; VRSA5): 1.95 ng/mL (≈ 7.92 nM)
- MBC ([7]; VRSA6): 1.95 ng/mL (≈ 7.92 nM)
- MIC ([7]; VRSA6): 0.49 ng/mL (≈ 1.99 nM)
- MBC ([7]; VRSA7): 3.9 ng/mL (≈ 15.8 nM)
- MIC ([7]; VRSA7): 1.95 ng/mL (≈ 7.92 nM)
- MBC ([7]; VRSA8): 0.975 ng/mL (≈ 3.96 nM)
- MIC ([7]; VRSA8): 0.49 ng/mL (≈ 1.99 nM)
- MBC ([7]; VRSA9): 1.95 ng/mL (≈ 7.92 nM)
- MIC ([7]; VRSA9): 0.975 ng/mL (≈ 3.96 nM)
- MBC ([7]; VRSA10): 0.975 ng/mL (≈ 3.96 nM)
- MIC ([7]; VRSA10): 0.975 ng/mL (≈ 3.96 nM)
- MBC ([7]; VRSA11a): 15.6 ng/mL (≈ 63.4 nM)
- MIC ([7]; VRSA11a): 0.975 ng/mL (≈ 3.96 nM)
- MBC ([7]; VRSA11b): 3.9 ng/mL (≈ 15.8 nM)
- MIC ([7]; VRSA11b): 0.975 ng/mL (≈ 3.96 nM)
- MBC ([7]; VRSA12): 3.9 ng/mL (≈ 15.8 nM)
- MIC ([7]; VRSA12): 1.95 ng/mL (≈ 7.92 nM)
- MBC ([7]; VRSA13): 15.6 ng/mL (≈ 63.4 nM)
- MIC ([7]; VRSA13): 1.95 ng/mL (≈ 7.92 nM)
- achieved plasma concentration after a therapeutic dose relative to required MIC90 against MRSA [8]: more than a thousand-folds higher
- MBC ([9]; read-out: MBC): 0.5 µM (≈ 0.123 µg/mL)
- MIC ([9]; read-out: MIC): < 0.5 µM
- MBC ([10]; NRS 1 / VISA, NRS 1): 1.95 ng/mL (≈ 7.92 nM)
- MIC ([10]; NRS 1 / VISA, NRS 1): 1.95 ng/mL (≈ 7.92 nM)
- MBC ([10]; NRS 19 / VISA): 1.95 ng/mL (≈ 7.92 nM)
- MIC ([10]; NRS 19 / VISA): 0.49 ng/mL (≈ 1.99 nM)
- MBC ([10]; NRS 37 / VISA): 7.8 ng/mL (≈ 31.7 nM)
- MIC ([10]; NRS 37 / VISA): 1.95 ng/mL (≈ 7.92 nM)
- MBC [11]: 7.8 ng/mL (≈ 31.7 nM)
- MIC [11]: 7.8 ng/mL (≈ 31.7 nM)
- MIC90 [12]: 3.9 ng/mL (≈ 15.8 nM)
